From the supplement of paper PMC4862054

What was measured:
CAL-120 [1] = experiment: normalised viability (% of control), CellTiter-Blue; higher = more viable cells (about 100 = DMSO control); details: incubation time: 72 h
Method in brief: (§1)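 The reported figure is normalised viability at a single listed concentration of the series. Breast cancer cell lines (20 µl suspension) went onto 384-well plates holding compound in 5 µl medium for 72 h. CellTiter-Blue (2.5 µl, 2 h, 37 °C) was read by fluorescence at 560/590 nm, and each plate was scaled to vehicle at 100 and a positive kill control at 0.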

BT-474 [2] = experiment: as above; details: incubation time: 72 h
Method in brief: as §1

MDA-MB-231 [3] = experiment: as above; details: incubation time: 72 h
Method in brief: as §1

CAL-120 [4] = experiment: normalised viability (% of control), CellTiter-Blue; higher = more viable cells (about 100 = DMSO control); details: 100 nM; incubation time: 72 h
Experimental: (§2)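 DSRT, CellTiter-Blue viability, 72 h incubation. Signal is normalised to DMSO and benzethonium chloride controls. Value is the normalised response at dose 3.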

MFM-223 [5] = experiment: as above; details: 100 nM; incubation time: 72 h
Experimental: as §2

CAL-51 [6] = experiment: as above; details: 10 nM; incubation time: 72 h
Experimental: as §2

MDA-MB-436 [7] = experiment: as above; details: 100 nM; incubation time: 72 h
Experimental: as §2

MCF-10A = experiment: drug sensitivity score (DSS), CellTiter-Glo (DSS (AUC-based score)); higher = stronger drug effect (viability inhibition or cytotoxicity); extreme values may be limits of the assay; details: incubation time: 72 h
Method in brief: (§3)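 In 384-well plates, compound was laid out at 5 concentrations in 10-fold steps over a 10,000-fold range specific to each compound, and breast cancer cell lines were seeded on top in 20 µl suspension for a 72 h incubation. CellTox Green fluorescence and then CellTiter-Glo luminescence were read, and each plate was normalised to 0.1 % DMSO and a positive kill control. The drug sensitivity score was calculated from the area under the fitted dose-response curve.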

HCC1599 = experiment: as above; details: incubation time: 72 h
Method in brief: as §3

CAL-120 [8] = experiment: as above; details: incubation time: 72 h
Method in brief: as §3

BT-474 [9] = experiment: as above; details: incubation time: 72 h
Method in brief: as §3

MDA-MB-453 = experiment: as above; details: incubation time: 72 h
Method in brief: as §3

CAL-148 = experiment: as above; details: incubation time: 72 h
Method in brief: as §3

MFM-223 [10] = experiment: as above; details: incubation time: 72 h
Method in brief: as §3

HDQ-P1 = experiment: as above; details: incubation time: 72 h
Method in brief: as §3

MDA-MB-468 = experiment: as above; details: incubation time: 72 h
Method in brief: as §3

MDA-MB-231 [11] = experiment: as above; details: incubation time: 72 h
Method in brief: as §3

BT-549 = experiment: as above; details: incubation time: 72 h
Method in brief: as §3

CAL-51 [12] = experiment: as above; details: incubation time: 72 h
Method in brief: as §3

SK-BR-3 = experiment: as above; details: incubation time: 72 h
Method in brief: as §3

HCC1937 = experiment: as above; details: incubation time: 72 h
Method in brief: as §3

CAL-85-1 = experiment: as above; details: incubation time: 72 h
Method in brief: as §3

MDA-MB-436 [13] = experiment: as above; details: incubation time: 72 h
Method in brief: as §3

Hs578T = experiment: as above; details: incubation time: 72 h
Method in brief: as §3

HCC1143 = experiment: as above; details: incubation time: 72 h
Method in brief: as §3

DU-4475 = experiment: as above; details: incubation time: 72 h
Method in brief: as §3

What does the source list for `COc1cc2/c(=N/c3ccc(Br)cc3F)nc[nH]c2cc1OCC1CCN(C)CC1` [Vandetanib]?
normalised viability (CAL-120 [1]; 10 nM): 117%; normalised viability (CAL-120 [1]; 1000 nM): 98.2%; normalised viability (CAL-120 [1]; 10000 nM): 17.6%; normalised viability (BT-474 [2]; 10 nM): 92.7%; normalised viability (BT-474 [2]; 1000 nM): 78.8%; normalised viability (BT-474 [2]; 10000 nM): 8.47%; normalised viability (MDA-MB-231 [3]; 10 nM): 86%; normalised viability (MDA-MB-231 [3]; 1000 nM): 82.5%; normalised viability (MDA-MB-231 [3]; 10000 nM): 8.26%; normalised viability (CAL-120 [4]): 98.3%; normalised viability (MFM-223 [5]): 112%; normalised viability (CAL-51 [6]): 99.3%; normalised viability (MDA-MB-436 [7]): 71.3%; drug sensitivity score (MCF-10A): 10.3; drug sensitivity score (HCC1599): 0; drug sensitivity score (CAL-120 [8]): 0.197; drug sensitivity score (BT-474 [9]): 3.47; drug sensitivity score (MDA-MB-453): 0; drug sensitivity score (CAL-148): 0; drug sensitivity score (MFM-223 [10]): 0.335; drug sensitivity score (HDQ-P1): 0; drug sensitivity score (MDA-MB-468): 4.76; drug sensitivity score (MDA-MB-231 [11]): 0; drug sensitivity score (BT-549): 0; drug sensitivity score (CAL-51 [12]): 0.137; drug sensitivity score (SK-BR-3): 0; drug sensitivity score (HCC1937): 0; drug sensitivity score (CAL-85-1): 0; drug sensitivity score (MDA-MB-436 [13]): 0.551; drug sensitivity score (Hs578T): 0; drug sensitivity score (HCC1143): 0; drug sensitivity score (DU-4475): 0
